The values that follow come from ChEMBL document CHEMBL1201862, “PubChem BioAssay data set” (2004).

A word on the AC50: it is the concentration giving half of the maximal activity seen. What is called IC50 is the concentration needed to halve the response being measured. One may read the Ki as a dissociation constant, usually derived from enzyme kinetics or from competition with a known ligand.

The source made the active and inactive calls.

Common to all, as to assay type: functional
Experiment [1] concerns the target T1, Microphthalmia-associated transcription factor (Homo sapiens, UniProt O75030).
T1 sequence (O75030 whole entry): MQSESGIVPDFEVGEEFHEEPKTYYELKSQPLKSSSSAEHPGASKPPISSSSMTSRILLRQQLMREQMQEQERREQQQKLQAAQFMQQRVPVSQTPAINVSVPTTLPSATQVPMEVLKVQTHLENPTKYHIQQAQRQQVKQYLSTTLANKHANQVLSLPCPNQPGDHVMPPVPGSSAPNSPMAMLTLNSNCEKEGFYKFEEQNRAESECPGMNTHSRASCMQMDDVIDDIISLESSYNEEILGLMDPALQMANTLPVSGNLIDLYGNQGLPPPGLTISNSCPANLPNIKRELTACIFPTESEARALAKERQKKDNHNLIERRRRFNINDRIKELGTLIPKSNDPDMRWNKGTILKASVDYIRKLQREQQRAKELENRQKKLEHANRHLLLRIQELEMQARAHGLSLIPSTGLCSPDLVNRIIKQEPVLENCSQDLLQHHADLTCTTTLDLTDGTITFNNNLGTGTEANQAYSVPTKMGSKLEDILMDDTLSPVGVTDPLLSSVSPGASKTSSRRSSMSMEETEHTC
Description: reducers of TRPM1 reporter luminescence, concentration series – cell-based, SK-MEL-5, cherry-picked, set 3, MITF inhibitor project, dose response (AID 493073).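 Also: SK-MEL-5 melanoma cells with luciferase driven by the MITF target TRPM1 promoter.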

For another experiment, the target named is Genome polyprotein (dengue virus type 2, UniProt P29990). Kind of experiment: flavivirus cap methylation enzyme inhibition – biochemical, confirmation dose response, primary screen (AID 588689).
For experiment [2], the target named is Receptor tyrosine-protein kinase erbB-2 (Homo sapiens, UniProt P04626). Description: Navigating the Kinome. Panel member name: ERBB2.
Experiment [3] deals with Testis-specific serine/threonine-protein kinase 2 (Homo sapiens, UniProt Q96PF2).
Experiment [4] deals with Megakaryocyte-associated tyrosine-protein kinase (Homo sapiens, UniProt P42679).
The target of experiment [5] is Mitogen-activated protein kinase 12 (Homo sapiens, UniProt P53778).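 Also: measured as one member of a kinome-wide kinase profiling panel.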
For experiment [6], the target named is Dual specificity tyrosine-phosphorylation-regulated kinase 4 (Homo sapiens, UniProt Q9NR20).
Experiment [7] concerns the target Serine/threonine-protein kinase MRCK alpha (Homo sapiens, UniProt Q5VT25).
Experiment [8] has as its target Cyclin-dependent kinase 5 (Homo sapiens, UniProt Q00535).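 Also: CDK5 measured as one member of a kinase profiling panel.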
For the next experiment, the target named is SRSF protein kinase 1 (Homo sapiens, UniProt Q96SB4).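 Also: measured as one member of a kinome-wide kinase profiling panel.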
The target of experiment [9] is Serine/threonine-protein kinase 3 (Homo sapiens, UniProt Q13188).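 Also: measured as one member of a kinome-wide kinase panel.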
The target of experiment [10] is Homeodomain-interacting protein kinase 4 (Homo sapiens, UniProt Q8NE63).
For experiment [11], the target named is Tyrosine-protein kinase Blk (Homo sapiens, UniProt P51451).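 Also: obtained as one member of a kinome-wide kinase assay panel.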
For experiment [12], the target named is Cell division cycle 7-related protein kinase (Homo sapiens, UniProt O00311).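 Also: value obtained from a kinome-wide kinase panel.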
In experiment [13] the target is Protein kinase C zeta type (Homo sapiens, UniProt Q05513).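 Also: measured as one member of a broad kinase profiling panel.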
Experiment [14] addresses Mitogen-activated protein kinase kinase kinase 20 (Homo sapiens, UniProt Q9NYL2).
In experiment [15] the target is Serine/threonine-protein kinase BRSK1 (Homo sapiens, UniProt Q8TDC3).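 Also: measured within a kinome-wide kinase panel, with the target listed as KIAA1811.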
Experiment [16] concerns the target Tyrosine-protein kinase Fyn (Homo sapiens, UniProt P06241).
The target in experiment [17] is Casein kinase II subunit alpha (Homo sapiens, UniProt P68400).
Experiment [18] has as its target Proto-oncogene tyrosine-protein kinase Src (Homo sapiens, UniProt P12931).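 Also: SRC entry within a kinome-wide kinase profiling panel.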
Experiment [19] deals with BDNF/NT-3 growth factors receptor (Homo sapiens, UniProt Q16620).
For experiment [20], the target named is Tyrosine-protein kinase FRK (Homo sapiens, UniProt P42685).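 Also: FRK tested as one member of a kinome panel.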
Another experiment has as its target Insulin receptor (Homo sapiens, UniProt P06213).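 Also: insulin receptor kinase tested as one member of a kinome-wide kinase panel.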
Experiment [21] has as its target Serine/threonine-protein kinase PAK 4 (Homo sapiens, UniProt O96013).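 Also: value obtained within a kinome profiling panel in which PAK4 was one of the panel members.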
Experiment [22] concerns the target Serine/threonine-protein kinase PLK1 (Homo sapiens, UniProt P53350).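 Also: PLK1 measured as one member of a kinome-wide profiling panel.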
Experiment [23] addresses Serine/threonine-protein kinase pim-2 (Homo sapiens, UniProt Q9P1W9).
Experiment [24] deals with MAP kinase-activated protein kinase 3 (Homo sapiens, UniProt Q16644).
The target in experiment [25] is Insulin-like growth factor 1 receptor (Homo sapiens, UniProt P08069). Kind of experiment: Navigating the Kinome. Panel member name: IGF1R.
In experiment [26] the target is Calcium/calmodulin-dependent protein kinase type 1 (Homo sapiens, UniProt Q14012).
The target of experiment [27] is 3-phosphoinositide-dependent protein kinase 1 (Homo sapiens, UniProt O15530).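 Also: value comes from the Navigating the Kinome panel, PDPK1 member.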
Experiment [28] addresses Platelet-derived growth factor receptor alpha (Homo sapiens, UniProt P16234). Kind of experiment: Navigating the Kinome. Panel member name: PDGFRA.
Another experiment has as its target T2, Aurora kinase A (Homo sapiens, UniProt O14965).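 Also: value from the Navigating the Kinome kinase panel profiling, panel entry STK6.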
T2 sequence (O14965 whole entry): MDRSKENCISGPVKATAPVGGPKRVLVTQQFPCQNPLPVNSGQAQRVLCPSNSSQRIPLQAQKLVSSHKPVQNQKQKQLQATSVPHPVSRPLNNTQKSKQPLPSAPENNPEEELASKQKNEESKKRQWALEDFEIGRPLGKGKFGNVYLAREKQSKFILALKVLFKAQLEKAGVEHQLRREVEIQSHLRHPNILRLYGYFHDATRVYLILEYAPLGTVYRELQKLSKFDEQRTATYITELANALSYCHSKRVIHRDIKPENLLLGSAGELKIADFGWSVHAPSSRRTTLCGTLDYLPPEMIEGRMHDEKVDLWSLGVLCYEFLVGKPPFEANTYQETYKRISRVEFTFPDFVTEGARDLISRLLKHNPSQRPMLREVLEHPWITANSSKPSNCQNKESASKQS

Experiment [29] addresses Glycogen synthase kinase-3 alpha (Homo sapiens, UniProt P49840).

Chain of Megakaryocyte-associated tyrosine-protein kinase (P42679 whole entry): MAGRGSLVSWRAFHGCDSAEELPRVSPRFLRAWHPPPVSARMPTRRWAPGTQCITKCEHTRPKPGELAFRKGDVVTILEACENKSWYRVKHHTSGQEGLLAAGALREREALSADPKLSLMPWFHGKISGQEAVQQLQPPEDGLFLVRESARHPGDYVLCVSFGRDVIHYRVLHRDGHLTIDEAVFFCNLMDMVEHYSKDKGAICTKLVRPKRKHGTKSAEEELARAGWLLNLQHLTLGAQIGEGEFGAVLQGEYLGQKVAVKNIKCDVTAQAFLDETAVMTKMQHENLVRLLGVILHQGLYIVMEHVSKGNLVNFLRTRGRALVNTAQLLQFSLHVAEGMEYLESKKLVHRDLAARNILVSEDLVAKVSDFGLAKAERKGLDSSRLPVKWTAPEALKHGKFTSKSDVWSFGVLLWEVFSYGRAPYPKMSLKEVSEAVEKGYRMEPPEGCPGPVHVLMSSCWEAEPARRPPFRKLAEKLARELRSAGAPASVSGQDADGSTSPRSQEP
Chain of Protein kinase C zeta type (Q05513 whole entry): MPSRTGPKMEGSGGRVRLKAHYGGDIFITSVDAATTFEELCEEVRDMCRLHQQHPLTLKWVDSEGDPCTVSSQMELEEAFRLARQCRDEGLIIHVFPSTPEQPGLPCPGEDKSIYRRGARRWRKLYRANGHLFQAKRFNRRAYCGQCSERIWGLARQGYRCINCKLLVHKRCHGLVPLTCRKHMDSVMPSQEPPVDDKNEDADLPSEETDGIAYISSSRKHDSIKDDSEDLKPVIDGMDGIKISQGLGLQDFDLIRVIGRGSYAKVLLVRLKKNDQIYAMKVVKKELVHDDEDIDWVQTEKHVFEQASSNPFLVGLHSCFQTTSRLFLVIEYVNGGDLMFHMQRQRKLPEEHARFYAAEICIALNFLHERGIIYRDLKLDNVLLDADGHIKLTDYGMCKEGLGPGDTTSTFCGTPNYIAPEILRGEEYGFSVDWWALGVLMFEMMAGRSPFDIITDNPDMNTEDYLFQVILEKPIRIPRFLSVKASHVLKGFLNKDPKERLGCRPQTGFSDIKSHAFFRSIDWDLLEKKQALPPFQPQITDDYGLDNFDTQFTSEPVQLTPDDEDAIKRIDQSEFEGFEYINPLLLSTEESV
Chain of Mitogen-activated protein kinase kinase kinase 20 (Q9NYL2 whole entry): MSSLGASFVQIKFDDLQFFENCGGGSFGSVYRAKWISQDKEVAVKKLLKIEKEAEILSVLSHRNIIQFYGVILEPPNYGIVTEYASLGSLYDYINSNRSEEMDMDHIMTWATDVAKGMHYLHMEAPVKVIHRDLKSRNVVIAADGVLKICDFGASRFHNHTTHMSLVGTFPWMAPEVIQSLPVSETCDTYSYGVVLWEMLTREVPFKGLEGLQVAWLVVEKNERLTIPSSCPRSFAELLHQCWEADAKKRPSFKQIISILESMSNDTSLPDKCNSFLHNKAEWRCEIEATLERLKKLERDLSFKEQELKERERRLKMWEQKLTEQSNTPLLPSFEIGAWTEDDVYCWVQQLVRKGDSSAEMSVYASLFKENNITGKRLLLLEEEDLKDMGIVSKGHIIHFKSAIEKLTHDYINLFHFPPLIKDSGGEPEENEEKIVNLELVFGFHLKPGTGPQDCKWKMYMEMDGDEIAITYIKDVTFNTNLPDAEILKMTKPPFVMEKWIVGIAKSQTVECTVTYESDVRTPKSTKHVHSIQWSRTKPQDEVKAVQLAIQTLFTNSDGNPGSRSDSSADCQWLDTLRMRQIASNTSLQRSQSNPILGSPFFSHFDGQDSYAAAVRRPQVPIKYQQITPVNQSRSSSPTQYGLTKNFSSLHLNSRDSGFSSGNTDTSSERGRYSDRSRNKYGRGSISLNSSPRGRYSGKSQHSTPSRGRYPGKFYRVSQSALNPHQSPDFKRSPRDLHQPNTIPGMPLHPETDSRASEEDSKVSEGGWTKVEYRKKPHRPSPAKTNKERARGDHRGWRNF
Chain of Testis-specific serine/threonine-protein kinase 2 (Q96PF2 whole entry): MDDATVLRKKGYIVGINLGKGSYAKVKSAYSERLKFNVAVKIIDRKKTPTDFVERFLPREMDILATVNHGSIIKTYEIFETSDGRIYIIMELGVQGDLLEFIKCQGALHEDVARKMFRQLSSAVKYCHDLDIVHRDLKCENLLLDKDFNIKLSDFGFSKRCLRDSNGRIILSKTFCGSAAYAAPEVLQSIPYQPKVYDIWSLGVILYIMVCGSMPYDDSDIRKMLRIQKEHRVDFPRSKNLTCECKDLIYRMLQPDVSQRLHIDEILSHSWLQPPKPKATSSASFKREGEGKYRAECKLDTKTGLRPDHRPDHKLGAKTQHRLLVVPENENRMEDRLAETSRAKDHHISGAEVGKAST
Chain of Proto-oncogene tyrosine-protein kinase Src (P12931 2-536 limits assumed): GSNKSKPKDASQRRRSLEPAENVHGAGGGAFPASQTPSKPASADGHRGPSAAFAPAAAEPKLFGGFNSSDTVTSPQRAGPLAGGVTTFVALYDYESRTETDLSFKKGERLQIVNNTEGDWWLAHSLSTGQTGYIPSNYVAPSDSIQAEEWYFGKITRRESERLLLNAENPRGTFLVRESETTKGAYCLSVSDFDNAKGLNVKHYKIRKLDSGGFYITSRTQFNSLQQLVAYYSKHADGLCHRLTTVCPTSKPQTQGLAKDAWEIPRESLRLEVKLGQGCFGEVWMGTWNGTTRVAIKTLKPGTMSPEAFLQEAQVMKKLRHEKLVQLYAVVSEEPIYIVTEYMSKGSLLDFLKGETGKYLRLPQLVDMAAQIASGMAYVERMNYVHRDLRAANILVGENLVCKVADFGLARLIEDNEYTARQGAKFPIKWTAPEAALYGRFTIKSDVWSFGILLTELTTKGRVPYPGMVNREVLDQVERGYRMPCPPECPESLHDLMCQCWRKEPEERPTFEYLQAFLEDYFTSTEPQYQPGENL
Chain of Tyrosine-protein kinase Blk (P51451 whole entry): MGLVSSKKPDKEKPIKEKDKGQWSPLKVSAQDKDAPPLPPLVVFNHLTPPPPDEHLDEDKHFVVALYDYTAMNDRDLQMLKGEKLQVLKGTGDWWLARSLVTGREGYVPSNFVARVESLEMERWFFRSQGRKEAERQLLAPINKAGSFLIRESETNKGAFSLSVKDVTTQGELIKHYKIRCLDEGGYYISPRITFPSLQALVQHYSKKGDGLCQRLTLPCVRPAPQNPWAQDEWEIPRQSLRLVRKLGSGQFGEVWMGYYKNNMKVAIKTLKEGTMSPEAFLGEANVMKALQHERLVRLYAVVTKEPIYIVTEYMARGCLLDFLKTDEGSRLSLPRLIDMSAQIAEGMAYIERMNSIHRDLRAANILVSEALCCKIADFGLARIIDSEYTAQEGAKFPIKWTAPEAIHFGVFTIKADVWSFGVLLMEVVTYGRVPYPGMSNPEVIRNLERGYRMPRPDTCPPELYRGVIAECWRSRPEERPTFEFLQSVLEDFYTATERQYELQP
Chain of Casein kinase II subunit alpha (P68400 whole entry): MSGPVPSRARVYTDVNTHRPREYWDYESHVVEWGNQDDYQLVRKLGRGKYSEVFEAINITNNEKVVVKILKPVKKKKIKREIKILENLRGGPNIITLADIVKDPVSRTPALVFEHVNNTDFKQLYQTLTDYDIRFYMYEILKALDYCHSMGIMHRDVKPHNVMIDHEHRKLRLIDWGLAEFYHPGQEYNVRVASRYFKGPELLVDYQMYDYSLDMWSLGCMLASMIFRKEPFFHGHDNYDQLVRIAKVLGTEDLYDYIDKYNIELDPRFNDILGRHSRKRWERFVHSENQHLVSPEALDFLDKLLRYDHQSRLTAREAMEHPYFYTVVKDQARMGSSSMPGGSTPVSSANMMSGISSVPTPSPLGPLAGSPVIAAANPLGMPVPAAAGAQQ
Chain of 3-phosphoinositide-dependent protein kinase 1 (O15530 whole entry): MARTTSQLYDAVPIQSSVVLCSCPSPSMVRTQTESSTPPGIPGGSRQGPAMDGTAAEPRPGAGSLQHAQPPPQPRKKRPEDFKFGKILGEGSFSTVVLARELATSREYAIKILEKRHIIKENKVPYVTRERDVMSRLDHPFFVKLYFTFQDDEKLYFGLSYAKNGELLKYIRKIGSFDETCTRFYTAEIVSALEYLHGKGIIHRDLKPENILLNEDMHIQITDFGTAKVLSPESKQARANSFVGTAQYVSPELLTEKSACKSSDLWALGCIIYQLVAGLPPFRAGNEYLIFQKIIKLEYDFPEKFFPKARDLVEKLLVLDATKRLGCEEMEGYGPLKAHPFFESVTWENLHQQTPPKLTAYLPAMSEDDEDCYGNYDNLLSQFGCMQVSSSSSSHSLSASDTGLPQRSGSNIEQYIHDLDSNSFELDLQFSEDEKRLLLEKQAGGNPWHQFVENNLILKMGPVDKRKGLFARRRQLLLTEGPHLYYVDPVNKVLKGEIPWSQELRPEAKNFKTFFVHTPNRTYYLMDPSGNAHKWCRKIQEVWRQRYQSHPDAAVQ
Chain of Serine/threonine-protein kinase PAK 4 (O96013 whole entry): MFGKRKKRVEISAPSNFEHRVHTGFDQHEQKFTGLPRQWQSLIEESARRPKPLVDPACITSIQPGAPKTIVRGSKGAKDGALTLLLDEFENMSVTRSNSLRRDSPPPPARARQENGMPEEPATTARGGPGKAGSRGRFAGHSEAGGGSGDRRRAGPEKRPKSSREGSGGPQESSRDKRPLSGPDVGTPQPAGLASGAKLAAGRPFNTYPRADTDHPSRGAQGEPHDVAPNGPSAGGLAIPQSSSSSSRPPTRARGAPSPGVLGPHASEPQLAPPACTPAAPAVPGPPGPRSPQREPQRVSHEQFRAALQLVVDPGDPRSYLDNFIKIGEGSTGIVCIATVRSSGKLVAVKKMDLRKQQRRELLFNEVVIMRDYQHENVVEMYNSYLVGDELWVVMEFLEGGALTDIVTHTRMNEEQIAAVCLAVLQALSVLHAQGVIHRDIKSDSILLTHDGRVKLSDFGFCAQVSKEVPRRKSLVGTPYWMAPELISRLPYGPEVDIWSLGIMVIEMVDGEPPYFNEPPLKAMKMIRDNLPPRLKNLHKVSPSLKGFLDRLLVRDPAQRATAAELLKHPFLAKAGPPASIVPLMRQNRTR

Take `COC(=O)CCS(=O)(=O)c1nc(-c2ccccc2)cc(C(F)(F)F)n1`: the half-maximal activity concentration (AC50) in experiment [1] was 5850 nM (active).
Regarding `O=C(O)c1ccc(NC2=C(Cl)C(=O)c3ccccc3C2=O)cc1`, the half-inhibitory concentration (IC50) at Genome polyprotein is 7760 nM (active).
In the case of `Cc1ccc2nccc(NC(=O)Nc3cccc(C(F)(F)F)n3)c2c1`, the Ki in experiment [2] is > 1580 nM (inactive); in experiment [3], > 1580 nM (inactive); in experiment [4] it was > 2000 nM (inactive); in experiment [5] it was > 6310 nM (inactive); in experiment [6], > 7940 nM (inactive); in [7], > 10000 nM (inactive). Further, the Ki in experiment [8] is 316 nM (active); on SRSF protein kinase 1 it was > 7940 nM (inactive); in experiment [9], 158 nM (active); in experiment [10] it was 251 nM (active); in [11] it was > 1580 nM (inactive); in [12], > 1260 nM (inactive). Also, the Ki was > 7940 nM (inactive) in experiment [13]; > 7940 nM (inactive) in [14]; > 10000 nM (inactive) in experiment [15]; > 794 nM (inactive) in [16]; 251 nM (active) in experiment [17]; > 2000 nM (inactive) in experiment [18]. Further, the Ki was > 5010 nM (inactive) in experiment [19]; 100 nM (active) in [20]; > 5010 nM (inactive) at Insulin receptor; > 5010 nM (inactive) in [21]; > 7940 nM (inactive) in experiment [22]; > 1580 nM (inactive) in experiment [23]. Further, the Ki in experiment [24] is > 10000 nM (inactive); in experiment [25] it was > 2000 nM (inactive); in experiment [26], > 3160 nM (inactive); in experiment [27] it was > 3980 nM (inactive).
With `Cc1nn(C)c2sc3c(=O)[nH]cnc3c12`, the Ki was 79400 nM (active) in [8]; 100000 nM (active) in [28]; > 50100 nM (inactive) at Insulin receptor; > 79400 nM (inactive) in [22]; > 63100 nM (inactive) at Aurora kinase A; 50100 nM (active) in [29].
`Cc1c(/N=C2\C=CC(=O)c3ccccc32)c(=O)n(-c2ccccc2)n1C`: the IC50 at Genome polyprotein is 88600 nM (active). Besides, in experiment [1], the half-maximal activity concentration (AC50) is 5260 nM (active).
Take `COc1cc2c(cc1F)C(c1ccccc1Cl)=Nc1c(n[nH]c1C)N2` [RG-1530]: the Ki in [2] was > 1580 nM (inactive); in [3], 1000 nM (active); in experiment [4] it was > 2000 nM (inactive); in experiment [5], > 6310 nM (inactive); in experiment [6], > 7940 nM (inactive); in experiment [7], > 10000 nM (inactive). In addition, the Ki on SRSF protein kinase 1 is 3160 nM (active); in experiment [9], 39.8 nM (active); in [28], 316 nM (active); in experiment [10] it was > 7940 nM (inactive); in experiment [11] it was 63.1 nM (active); in experiment [12], > 1260 nM (inactive). In addition, the Ki is > 7940 nM (inactive) in experiment [13]; > 7940 nM (inactive) in experiment [14]; 1260 nM (active) in [15]; 316 nM (active) in [16]; 2510 nM (active) in experiment [17]; 126 nM (active) in [18]. The inhibitory constant (Ki) in experiment [19] was 100 nM (active); in experiment [20], 79.4 nM (active); in experiment [21], 79.4 nM (active); in [23], > 1580 nM (inactive); at Aurora kinase A, 25.1 nM (active); in experiment [29], 50.1 nM (active). Besides, the Ki in experiment [24] is > 10000 nM (inactive); in experiment [25], > 1260 nM (inactive); in [26], > 3160 nM (inactive); in [27], 50.1 nM (active).
